Among the data in PubChem BioAssay AID449762 (Southern Research Specialized Biocontainment Screening …, 2010) are IC50 and IC90 values, retold here.

What is called IC50 is the midpoint of a concentration-inhibition curve. In general, IC90 refers to the point of the concentration-response curve where the effect stands at 90%.

Inconclusive results are not listed.

The test system of this experiment is M. tuberculosis H37Rv growth inhibition, 7H9 media. Put plainly: M. tuberculosis growth inhibition, HTS (AID 449762).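 As to all read-outs here: bacterial growth assessed after seven days of incubation.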 As to conditions: for IC90: measured here: IC90 growth inhibition.

Regarding `COc1ccccc1NC(=O)C(C)OC(=O)/C=C/c1ccc2ccccc2n1` (stereo not given), the IC50 is 3.82 µM and the IC90 came out at 11.4 µM. The like results for `Cc1ccc(NN=C2c3ccccc3-c3ccccc32)cc1` were, in that order, 45.5 µM and > 100 µM.

Consider `Cc1c(Cl)c([N+](=O)[O-])nn1Cc1ccc(C(=O)N/N=C\c2cccc(Br)c2)o1`, for which the IC50 was 66.7 µM and the IC90 was > 100 µM.

Regarding `Cc1cncn1CCc1nc2c3ccccc3nc(SCC(=O)Nc3cccc(Cl)c3)n2n1`, the IC50 is 20.9 µM and the IC90 came out at 27.9 µM. For `CCc1ccc(NC(=O)CSc2nc3n[nH]c(C)c3c(=N)n2-c2cccc(OC)c2)cc1`, in that order: 13.2 µM and 37.1 µM. Consider `COc1ccc2c3n(nc2c1)CCN=C3c1cc(Cl)c(N)c(Cl)c1`, for which the IC50 was 12.8 µM and the 90% effect concentration (IC90) was 31.9 µM. The like results for `CCCCCCCNC(=O)c1ccc(N2CCC3(CC2)OCCO3)c([N+](=O)[O-])c1` were, in that order, 37.9 µM and 47.2 µM.

With `CC1(c2ccc(OC(F)F)cc2)NC(=O)N(CC(=O)c2ccc3c(c2)OCO3)C1=O` (stereo not given), the IC50 was 23.6 µM and the IC90 came to 32.2 µM.

For the compound `N#CC(C(=O)NCc1ccco1)c1nc2ccccc2nc1N1CCOCC1` (stereo not given), the IC50 was 43 µM and the IC90 is 45.2 µM. For `CCN1/C(=C/C=C/c2oc3ccc(-c4ccccc4)cc3[n+]2CC)Oc2ccc(-c3ccccc3)cc21`, in that order: 3.74 µM and 4.74 µM. For `COCCCNC(=O)/C(C#N)=C/c1c(N2CCN(c3cccc(Cl)c3)CC2)nc2c(C)cccn2c1=O`, in that order: 53.9 µM and > 100 µM. For `O=C(NCC(c1cccs1)N1CCOCC1)c1cc([N+](=O)[O-])cc([N+](=O)[O-])c1` (stereo not given), the IC50 is 0.72 µM and the concentration for an effect of 90% (IC90) was 0.81 µM. The like results for `COc1c[nH]n(C2CCCCC2)c(=O)c1=O` were, in that order, 11.8 µM and 18.1 µM.

With `O=C(CNC(=O)c1ccc(Cl)cc1)c1ccc(Cl)cc1`, the IC50 was 96.6 µM and the IC90 is > 100 µM. `CCOc1ccc(CN(C)CC(O)COC(c2ccc(OC)cc2)c2ccc(OC)cc2)cc1` (stereo not given): the IC50 was 10.5 µM and the IC90 was 13.4 µM. Consider `Cc1ccccc1-n1c(SCC(=O)N/N=C/c2c(C)nn(-c3ccccc3)c2C)nc2ccccc2c1=O`, for which the IC50 is 2.85 µM and the IC90 came to 3.52 µM. In the case of `O=C(CN1CCN(c2ccccc2O)CC1)Nc1ccccc1C(=O)NCCc1ccccc1`, the IC50 is 44.3 µM and the IC90 came to 57.9 µM. The like results for `Cc1ncsc1CCOC(=O)c1ccc([N+](=O)[O-])cc1` were, in that order, 8.11 µM and > 100 µM. Take `Nc1c2c(nc3sc4c(c13)CCCCC4)CCCC2`: the IC50 is 4.56 µM and the IC90 worked out at 13.8 µM.

For the compound `CC(C)(C)c1ccc(Cn2nnc3c(=O)[nH]c(C4CCCN(C(=O)Cc5cccs5)C4)nc32)cc1` (stereo not given), the IC50 was 35.2 µM and the IC90 amounted to 47.8 µM. For `COC(=O)c1ccc(NC(=O)CSc2nc3ccc(N4C(=O)C5C6C=CC(C6)C5C4=O)cc3s2)cc1` (stereo not given), in that order: 3.89 µM and 5.73 µM. With `CC(C)(C)c1nc2sc3c(c2c(=O)o1)CCCC3`, the IC90 is > 100 µM. On to `CCOC(=O)COc1ccc(/C=C2\NC(=S)N(CC)C2=O)cc1`, for which the IC50 is 1.17 µM and the IC90 was 8.47 µM. On to `CC1(C)CC(=O)C2=C(C1)OC(N)=C([N+](=O)[O-])C2c1ccc(C#N)s1` (stereo not given), for which the IC50 was 62.2 µM and the concentration for an effect of 90% (IC90) was > 100 µM. The like results for `CCOC(=O)C1(CCOc2ccccc2)CCN(Cc2cccc(-n3cccn3)c2)CC1` were, in that order, 25.4 µM and 28.8 µM. For `Cc1ccc(S(=O)(=O)NCc2ccc(C(=O)NCCCN3CCC(Cc4ccccc4)CC3)cc2)cc1`, in that order: 79.8 µM and > 100 µM. Take `COC(=O)CSc1[nH]c2ccc(Br)cc2c1[N+](=O)[O-]`: the IC50 is 5.64 µM and the IC90 was determined as 9.31 µM. As to `CCOC(=O)c1nn(-c2ccc(C)cc2)c2nc(Nc3ccccc3)cc(=O)n12`, the IC50 is 4.1 µM and the IC90 was found to be 12.7 µM. Regarding `CCCCC(CC)CN=C(N)NC(N)=NCCCCCCN=C(N)NC(N)=NCC(CC)CCCC` (stereo not given), the IC50 is 3.61 µM and the IC90 was 4.76 µM. Regarding `COc1cccc(-c2nnc(NC(=O)c3ccc(S(=O)(=O)N4CCOCC4)cc3)o2)c1`, the IC50 was 23.6 µM and the IC90 was 26.7 µM. On to `Cc1sc2ncnc(N3CCC(C(=O)NCC(=O)Nc4ccc(F)c(F)c4)CC3)c2c1C`, for which the IC50 is 37.9 µM and the IC90 stood at 50 µM. For the compound `COc1ccccc1/C=N/NC(=O)NC12CC3CC(CC(C3)C1)C2`, the IC90 is > 100 µM. `Cc1cccc(/C=C2/S/C(=N/N=C3\CC4CCC3(C)C4(C)C)NC2=O)c1` (stereo not given): the IC50 was 7.92 µM and the IC90 was > 100 µM.

For `Cc1cc(-c2ccc(Cl)cc2)c2cnn(C(C)C)c2n1`, the IC50 was 25.5 µM and the IC90 worked out at 44.1 µM. The like results for `Nn1c(SCc2ccccc2)nc2ccccc21` were, in that order, 28 µM and > 100 µM. Turning to `COC(=O)CCc1sc(Nc2ccc(Br)cc2)nc1-c1ccc(OC)cc1`, the IC50 is 26 µM and the 90% effect concentration (IC90) turned out to be 44.1 µM. The like results for `Cc1nc2ccc(OC(=O)c3ccccc3)cc2s1` were, in that order, 66 µM and 86 µM.

Turning to `CCOC(=O)C1CCCN(c2ncnc3c2cnn3-c2ccc(OC)cc2)C1` (stereo not given), the half-maximal inhibitory concentration (IC50) is 2.3 µM and the IC90 is 10.7 µM. Turning to `CCN(CC)c1ccc(/C=C2\SC(=O)N(C(C)C)C2=O)o1`, the IC50 was 1.34 µM and the IC90 turned out to be 4.79 µM. Consider `Cc1ccc(OCc2cc(C(=O)N(C)Cc3cnc4ccccn34)no2)cc1C`, for which the IC50 is 19.6 µM and the IC90 is 32 µM. For `COc1cc(OC)nc(-n2ncc(Br)c(Br)c2=O)n1`, in that order: 4.28 µM and 60.7 µM. As for `COC(=O)c1c(NC(=O)CCl)sc(C(=O)N2CCOCC2)c1C`, the 50% inhibitory concentration (IC50) was 2.19 µM and the IC90 was 5.65 µM. Regarding `Cc1ccc(CNC(=O)c2sc3nc4c(c(C(F)(F)F)c3c2N)CCC4)cc1`, the IC50 was 35.7 µM and the IC90 came to 50.9 µM. In the case of `Nc1c(N(CCC2=CCCCC2)C(=O)c2ccc([N+](=O)[O-])o2)c(=O)[nH]c(=O)n1Cc1ccccc1`, the half-maximal inhibitory concentration (IC50) is 16.6 µM and the IC90 was 30.2 µM. For `COc1ccc(-c2nnc3sc(C4CCCCC4)nn23)cc1OC`, in that order: 36.2 µM and 55.3 µM.

Regarding `O=C(C=C=Nc1ccccc1)C(=O)N=C=Cc1ccccc1`, the IC50 is 5.31 µM and the IC90 was 13.1 µM. As for `Cc1ccc(C)c(N2CCN(C(=S)Nc3ccc4nc(N5CCN(C)CC5)cc(C)c4c3)CC2)c1`, the IC50 was 38.7 µM and the IC90 turned out to be 50.9 µM. With `CCc1nnc(NS(=O)(=O)c2ccc(N/C=C\C(=O)c3cccc(OC)c3)cc2)s1`, the IC50 was 16.2 µM and the IC90 worked out at 35.5 µM. For `CCC(C)Nc1ccc(NC(C)CC)cc1` (stereo not given), in that order: 1.12 µM and 1.69 µM.

As for `CSc1cccc(NC(=O)CCS(=O)(=O)c2cccc3nonc23)c1`, the IC50 is 1.72 µM and the 90% effect concentration (IC90) was 7.46 µM. As for `CCc1ccc(N=Nc2ccc(O)c3[nH]cnc23)cc1`, the IC50 is 15.4 µM and the IC90 was > 100 µM.
